Results reported in patent publication US8304434B2, “Substituted aryl sulfone derivatives as calcium channel blockers” (Merck Sharp & Dohme Corp., priority 2007, dated 2012).

The compounds below were run against T1, Human Cav2.2 channels (Homo sapiens, UniProt Q00975) (assay: Fluorescent assay for Cav2.2 channels using potassium depolarization to initiate channel opening (Assay Example 1)). Details: Assay Example 1, HEK293 cells expressing human Cav2.2; pre-incubation potassium concentration not stated.
T1 construct: expressed in transfected cells; also expresses Kir2.3)
Format: cell-based
From the text: Human Cav2.2 channels were stably expressed in HEK293 cells along with alpha2-delta and beta subunits of voltage-gated calcium channels. An inwardly rectifying potassium channel (Kir2.3) was also expressed in these cells to allow more precise control of the cell membrane potential by extracellular potassium concentration. At low bath potassium concentration, the membrane potential is relatively negative, and is depolarized as the bath potassium concentration is raised. In this way, the bath potassium concentration can be used to regulate the voltage-dependent conformations of the channels. Compounds are incubated with cells in the presence of low (4 mM) potassium or elevated (12, 25 or 30 mM) potassium to determine the affinity for compound block of resting (closed) channels at 4 mM potassium or affinity for block of open and inactivated channels at 12, 25 or 30 mM potassium. After the incubation period, Cav2.2 channel opening is triggered by addition of higher concentration of potassium (70 mM final concentration) to further depolarize the cell. The degree of state-dependent block can be estimated from the inhibitory potency of compounds after incubation in different potassium concentrations.
Calcium influx through Cav2.2 channels is determined using a calcium-sensitive fluorescent dye in combination with a fluorescent plate reader. Fluorescent changes were measured with either a VIPR (Aurora Instruments) or FLIPR (Molecular Devices) plate reader.
• 1. Seed cells in Poly-D-Lysine Coated 96- or 384-well plate and keep in a 37° C.-10% CO2 incubator overnight • 2. Remove media^1, wash cells with 0.2 ml (96-well plate) or 0.05 ml (384-well plate) Dulbecco's Phosphate Buffered Saline (D-PBS) with calcium & magnesium (Invitrogen; 14040) • 3. Add 0.1 ml (96-well plate) or 0.05 ml (384-well plate) of 4 μM fluo-4 (Molecular Probes; F-14202) and 0.02% Pluronic acid (Molecular Probes; P-3000) prepared in D-PBS with calcium & magnesium (Invitrogen; 14040) supplemented with 10 mM Glucose & 10 mM Hepes/NaOH; pH 7.4 • 4. Incubate in the dark at 25° C. for 60-70 min • 5. Remove dye^2, wash cells with 0.1 ml (96-well plate) or 0.06 ml (384-well plate) of 4, 12, 25, or 30 mM Potassium Pre-polarization Buffer. (PPB) • 6. Add 0.1 ml (96-well plate) or 0.03 ml (384-well plate) of 4, 12, 25, 30 mM PPB, with or without test compound • 7. Incubate in the dark at 25° C. for 30 min • 8. Read cell plate on VIPR instrument, Excitation=480 nm, Emission=535 nm • 9. With VIPR continuously reading, add 0.1 ml (96-well plate) or 0.03 ml (384-well plate) of Depolarization Buffer, which is 2× the final assay concentration, to the cell plate.

T1 sequence (Q00975 whole entry): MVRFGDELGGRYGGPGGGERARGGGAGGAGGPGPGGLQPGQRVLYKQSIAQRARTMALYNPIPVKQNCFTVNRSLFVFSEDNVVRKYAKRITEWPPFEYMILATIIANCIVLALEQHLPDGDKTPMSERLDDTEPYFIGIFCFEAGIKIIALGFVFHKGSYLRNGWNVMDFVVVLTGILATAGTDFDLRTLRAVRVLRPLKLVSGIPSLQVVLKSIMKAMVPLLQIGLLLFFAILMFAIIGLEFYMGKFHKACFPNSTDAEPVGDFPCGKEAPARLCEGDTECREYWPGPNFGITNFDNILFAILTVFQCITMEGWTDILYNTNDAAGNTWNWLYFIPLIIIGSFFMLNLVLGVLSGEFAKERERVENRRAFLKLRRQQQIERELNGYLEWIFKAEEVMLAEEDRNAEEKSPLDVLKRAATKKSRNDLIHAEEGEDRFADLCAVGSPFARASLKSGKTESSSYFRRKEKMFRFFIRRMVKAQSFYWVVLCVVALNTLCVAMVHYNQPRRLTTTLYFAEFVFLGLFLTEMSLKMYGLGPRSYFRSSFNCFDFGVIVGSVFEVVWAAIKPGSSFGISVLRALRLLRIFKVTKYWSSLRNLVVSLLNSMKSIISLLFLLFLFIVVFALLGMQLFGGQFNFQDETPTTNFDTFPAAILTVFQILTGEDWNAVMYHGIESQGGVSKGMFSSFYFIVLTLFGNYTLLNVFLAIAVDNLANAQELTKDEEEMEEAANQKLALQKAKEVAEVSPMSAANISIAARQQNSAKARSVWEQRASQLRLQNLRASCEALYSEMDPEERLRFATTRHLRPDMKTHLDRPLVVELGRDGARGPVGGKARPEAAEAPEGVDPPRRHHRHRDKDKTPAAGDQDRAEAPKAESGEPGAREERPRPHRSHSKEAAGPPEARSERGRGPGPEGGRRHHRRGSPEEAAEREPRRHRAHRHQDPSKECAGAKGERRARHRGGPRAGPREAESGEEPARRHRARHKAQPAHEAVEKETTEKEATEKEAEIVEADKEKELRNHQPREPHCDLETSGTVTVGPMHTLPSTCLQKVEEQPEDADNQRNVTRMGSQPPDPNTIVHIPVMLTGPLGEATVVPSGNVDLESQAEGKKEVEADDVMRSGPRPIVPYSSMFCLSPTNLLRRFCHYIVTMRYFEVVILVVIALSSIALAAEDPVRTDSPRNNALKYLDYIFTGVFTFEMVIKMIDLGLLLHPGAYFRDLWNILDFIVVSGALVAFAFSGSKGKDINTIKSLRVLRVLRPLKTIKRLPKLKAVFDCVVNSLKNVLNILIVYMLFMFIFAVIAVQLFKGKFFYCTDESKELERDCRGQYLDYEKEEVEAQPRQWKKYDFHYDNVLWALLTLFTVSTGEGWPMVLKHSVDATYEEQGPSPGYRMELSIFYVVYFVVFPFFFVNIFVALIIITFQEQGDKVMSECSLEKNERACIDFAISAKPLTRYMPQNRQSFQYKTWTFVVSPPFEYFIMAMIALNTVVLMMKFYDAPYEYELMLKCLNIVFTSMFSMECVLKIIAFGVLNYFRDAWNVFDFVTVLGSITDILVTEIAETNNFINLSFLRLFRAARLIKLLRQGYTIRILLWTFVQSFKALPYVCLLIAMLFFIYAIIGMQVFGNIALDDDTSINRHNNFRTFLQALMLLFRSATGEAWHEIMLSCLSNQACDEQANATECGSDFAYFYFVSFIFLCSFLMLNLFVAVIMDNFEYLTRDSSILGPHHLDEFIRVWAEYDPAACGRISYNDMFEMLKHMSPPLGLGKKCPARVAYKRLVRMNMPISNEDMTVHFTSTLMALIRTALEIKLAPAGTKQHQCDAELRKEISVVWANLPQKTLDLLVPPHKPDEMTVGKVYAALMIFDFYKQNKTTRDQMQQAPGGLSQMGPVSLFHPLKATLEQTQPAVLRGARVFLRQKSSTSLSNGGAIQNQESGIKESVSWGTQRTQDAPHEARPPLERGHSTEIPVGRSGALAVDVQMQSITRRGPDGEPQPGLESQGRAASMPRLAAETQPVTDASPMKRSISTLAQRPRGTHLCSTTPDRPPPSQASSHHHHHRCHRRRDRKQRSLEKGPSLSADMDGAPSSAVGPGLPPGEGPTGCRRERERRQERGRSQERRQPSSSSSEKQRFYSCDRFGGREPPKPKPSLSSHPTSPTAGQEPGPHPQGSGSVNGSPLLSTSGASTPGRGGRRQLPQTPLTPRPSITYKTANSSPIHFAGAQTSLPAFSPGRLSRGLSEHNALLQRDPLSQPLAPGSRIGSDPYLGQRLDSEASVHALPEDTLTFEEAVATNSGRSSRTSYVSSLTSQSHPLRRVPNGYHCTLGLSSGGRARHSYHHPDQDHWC

IC50 | Compound
1390 nM | CC(C)(C1CCN(C(=O)c2c[nH]c(-c3ccccc3)n2)CC1)S(=O)(=O)c1cccc(C(F)(F)F)c1
150 nM | CC(C)(C1CCN(C(=O)c2ccc(C(F)(F)F)cc2S(C)(=O)=O)CC1)S(=O)(=O)c1cccc(C(F)(F)F)c1
490 nM | CC(C)(C1CCN(C(=O)[C@@H](N)Cc2ccccc2)CC1)S(=O)(=O)c1cccc(C(F)(F)F)c1
360 nM | CC(C)(C1CCN(C(=O)C[C@@H](NS(C)(=O)=O)c2ccccc2)CC1)S(=O)(=O)c1cccc(C(F)(F)F)c1
510 nM | CC(C)(C1CCN(C(=O)[C@H](O)Cc2ccccc2)CC1)S(=O)(=O)c1cccc(C(F)(F)F)c1
490 nM | CC(C)(C)c1ccc(C(=O)N2CCC(C(C)(C)S(=O)(=O)c3cccc(C(F)(F)F)c3)CC2)cc1
790 nM | CC(C)(C1CCN(C(=O)c2nc3ccc(F)cc3[nH]2)CC1)S(=O)(=O)c1cccc(C(F)(F)F)c1
1170 nM | CC(C)(C1CCN(C(=O)C2(N)CCC2)CC1)S(=O)(=O)c1cccc(C(F)(F)F)c1
1400 nM | CC(C)(C1CCN(C(=O)c2cccc3nccnc23)CC1)S(=O)(=O)c1cccc(C(F)(F)F)c1
830 nM | CC(C)(C1CCN(C(=O)c2cccc(F)c2)CC1)S(=O)(=O)c1cccc(C(F)(F)F)c1
